# Test results taken from US20030216330A1, “Parenteral, intravenous, and oral administration of oxazolidinones for treating diabetic foot infections” (PHARMACIA & UPJOHN, priority 2002, published 2003).
# Experiments:
# diabetic foot infection [1] = assay: Open-label, comparator-controlled trial in patients with diabetic foot infection: clinical cure; format: in vivo, human
# Text: (§1) The clinically evaluable population comprised 317 patients, most of whom were male and white with a mean age of 63 years old. Patients with critical limb ischemia were excluded, but those with osteomyelitis could be included. […] Treatment was for 7-28 days with the mean treatment duration shown below in Table 1. Patients could be switched to PO therapy at the investigator's discretion.
# (§2) The most common baseline pathogens were S. aureus (158 isolates, 31 of which were methicillin-resistant S. aureus (MRSA), coagulase-negative staphylococci (65), enterococci (60) and Streptococcus agalactiae (52). To cover methicillin-resistant S. aureus in the aminopenicillin regimen, IV vancomycin (1 g every 12 h or per dosing guidelines) was added to the amino/β-LI treated patients with MRSA isolated from the study wound. To cover possible resistant gram-negative rods in either regimen, IV aztreonam (1-2 g, IV, every 8-12 h) was permitted in both treatment arms for suspected/documented gram-negative pathogens. This is shown below in Table 2.
# Infections were defined by clinical signs and symptoms and categorized as cellulites, deep soft tissue infections, infected ulcer, septic arthritis, paronychia, abscess or osteomyelitis. […] The most common types (sometimes combined) of infections were: ulcers (78%); cellulitis (45%); deep soft tissue (15%); paronychia (6%). Most patients in both arms were treated as outpatients (66%) with only oral therapy (73%) and with a single agent (87%). Clinical characteristics of the infected sites at baseline were similar in the treatment groups; most common were tenderness (97%), induration (95%), local warmth (92%), non-purulent drainage (82%) and erythema (47%).
# Debridement and other surgical procedures (short of complete resection/amputation) were allowed and wounds were off-loaded (mechanical stress on the wounded area was avoided) as needed. There were no significant differences in adverse events in the two treatment arms.
# [2] = tested on: aerobic gram positive bacteria; details: including streptococci, MRSA and VRE; cited from earlier work
# [3] = tested on: Staphylococcus agalactiae; assay: Clinical outcome by baseline pathogen (MITT population); format: in vivo; details: baseline pathogen S. agalactiae
# Text: as §1, §2
# diabetic foot infection [4] = assay: Example 3: parenteral treatment of a human with a diabetic foot infection; format: in vivo; details: 600 mg parenteral, two times daily for 7-28 days; person
# Protocol: A 70 kilo […] with a history of diabetes and infected foot ulcerations, also known as diabetic foot, is treated with a parenteral preparation of 600 mg (S)-N-[[3-[3-fluoro-4-[4-(morpholinyl)[…]]-2-oxo-5-oxazolidinyl]methyl]acetamide. The preparation is administered two times daily for 7-28 days. The patient is evaluated by clinical observations and with x-rays for osteomyelitis, including with a “probe-to bone” test and a bone biopsy if the patient has an open wound.
# [5] = tested on: baseline gram-positive pathogen; assay: Microbiological success rate in the diabetic foot infection trial; format: in vivo, human
# Text: as §1
# (§3) Resistance to ampicillin/sulbactam was documented in 1 S. aureus isolate.
# isolated pathogens = assay: Resistance of pathogens isolated in the trial to study medication; details: at baseline or developed during the trial
# Text: as §3
smiles,measurement,setting,value
"CC(=O)NC[C@H]1CN(c2ccc(N3CCOCC3)c(F)c2)C(=O)O1 [Linezolid, (S)-N-[[3-[3-fluoro-4-(4-morpholinyl)phenyl]-2-oxo-5-oxazolidinyl]methyl]acetamide]",Clinical Efficacy (% Efficacy of the Evaluatable Population),"diabetic foot infection [1]; clinically evaluable population, 317 patients",83%
same,clinical outcome versus amino/β-LI,diabetic foot infection [1]; infected ulcers and non-osteomyelitis cases,clinically superior
same,clinically cured patients,"diabetic foot infection [1]; infected ulcers, FIG. 2",81.4%
same,Clinical cure rates,"diabetic foot infection [1]; intent-to-treat (ITT) and clinically evaluable (CE) populations, FIG. 1",comparable
same,overall clinical and micro-biological outcomes versus amino/β-LI,"diabetic foot infection [1]; mostly given alone, PO, to outpatients",at least as effective overall as amino/β-LI
same,clinical cure rate,diabetic foot infection [1]; patients with osteomyelitis (n=60),61.0%
same,clinical cure rate,diabetic foot infection [1]; patients without osteomyelitis,86%
same,antibacterial activity,[2],active against almost all aerobic gram positive bacteria
same,clinical cure rate versus comparator,[3],significantly higher clinical cure rate
same,clinical observation of the ulcerated area after the course of treatment,diabetic foot infection [4],tissue destruction in the ulcerated area has visibly ceased and tissue repair has begun
same,microbiological success rates,[5]; microbiologically evaluable (ME) patients,72.2%
same,Microbiol. Efficacy (% Efficacy of the Evaluatable Population),"[5]; microbiologically evaluable population, 212 patients",72%
same,resistance of isolated pathogens to the study drug,isolated pathogens,None of the isolated pathogens was resistant
